According to ChEMBL document CHEMBL3525983, “Pharmacokinetics, metabolism, and disposition of rivoglitazone, a novel peroxisome proliferator-activated receptor γ agonist, in rats and monkeys” (Drug Metab Dispos, 2011):

What was measured:
[1] = AUC (0 to t) in monkey at 0.493 mg/kg, po administered via gavage by LC-MS/MS analysis; type: ADME, organism-based, Macaca mulatta; parameters: dose 0.493 mg/kg, dosed compound name [14C]Rivoglitazone, route oral; conditions: rhesus monkey, plasma
[2] = AUC (0 to infinity) in monkey at 0.0986 mg/kg, po administered via gavage by LC-MS/MS analysis; type: ADME, organism-based, Macaca mulatta; parameters: time infinity, dose 0.0986 mg/kg, dosed compound name [14C]Rivoglitazone, route oral; conditions: rhesus monkey, plasma
[3] = Volume of distribution at steady state in F344/DuCrlCrlj rat at 0.5 mg/kg, iv administered via tail vein by LC-MS/MS analysis; type: ADME, organism-based; parameters: dose 0.5 mg/kg, dosed compound name [14C]Rivoglitazone, route intravenous; conditions: in vivo, read-out: Vdss
[4] = Terminal elimination half life in monkey at 0.986 mg/kg, po administered via gavage by LC-MS/MS analysis; type: ADME, organism-based, Macaca mulatta; parameters: dose 0.986 mg/kg, dosed compound name [14C]Rivoglitazone, route oral; conditions: rhesus monkey, in vivo, read-out: beta t1/2 (converted)
[5] = Tmax in F344/DuCrlCrlj rat at 0.5 mg/kg, po administered via gavage by LC-MS/MS analysis; type: ADME, organism-based; parameters: dose 0.5 mg/kg, dosed compound name [14C]Rivoglitazone, route oral; conditions: in vivo
[6] = Volume of distribution at steady state in monkey at 0.0986 mg/kg, iv administered via tail vein by LC-MS/MS analysis; type: ADME, organism-based, Macaca mulatta; parameters: dose 0.0986 mg/kg, dosed compound name [14C]Rivoglitazone, route intravenous; conditions: rhesus monkey, in vivo, read-out: Vdss
[7] = AUC (0 to infinity) in F344/DuCrlCrlj rat at 1 mg/kg, po administered via gavage by LC-MS/MS analysis; type: ADME, organism-based; parameters: time infinity, dose 1 mg/kg, dosed compound name [14C]Rivoglitazone, route oral; conditions: plasma
[8] = Oral bioavailability in F344/DuCrlCrlj rat at 0.5 mg/kg administered via gavage by LC-MS/MS analysis; type: ADME, organism-based; parameters: dosed compound name [14C]Rivoglitazone; conditions: in vivo
[9] = Volume of distribution at steady state in monkey at 0.986 mg/kg, iv administered via tail vein by LC-MS/MS analysis; type: ADME, organism-based, Macaca mulatta; parameters: dose 0.986 mg/kg, dosed compound name [14C]Rivoglitazone, route intravenous; conditions: rhesus monkey, in vivo, read-out: Vdss
[10] = Apparent total clearance in F344/DuCrlCrlj rat at 0.5 mg/kg, po administered via gavage by LC-MS/MS analysis; type: ADME, organism-based; parameters: dose 0.5 mg/kg, dosed compound name [14C]Rivoglitazone, route oral; conditions: in vivo, read-out: CLt/F
[11] = Oral bioavailability in monkey at 0.493 mg/kg administered via gavage by LC-MS/MS analysis; type: ADME, organism-based, Macaca mulatta; parameters: dosed compound name [14C]Rivoglitazone; conditions: rhesus monkey, in vivo
[12] = Tmax in F344/DuCrlCrlj rat at 1 mg/kg, po administered via gavage by LC-MS/MS analysis; type: ADME, organism-based; parameters: dose 1 mg/kg, dosed compound name [14C]Rivoglitazone, route oral; conditions: in vivo
[13] = system: Plasma; experiment: Drug uptake in monkey plasma assessed as unchanged compound at 1 to 5 mg/kg, po administered as single dose via gavage by LC-MS/MS analysis; type: ADME, organism-based, Macaca mulatta; parameters: dose 1-5 mg/kg, dosed compound name [14C]Rivoglitazone, route oral; conditions: rhesus monkey, in vivo
[14] = Terminal elimination half life in F344/DuCrlCrlj rat at 1 mg/kg, po administered via gavage by LC-MS/MS analysis; type: ADME, organism-based; parameters: dose 1 mg/kg, dosed compound name [14C]Rivoglitazone, route oral; conditions: in vivo, read-out: beta t1/2 (converted)
[15] = Drug excretion in monkey feces assessed as unchanged compound at 1 mg/kg, po administered via gavage measured during 0 to 72 hrs by radio-HPLC analysis; type: ADME, organism-based, Macaca mulatta; parameters: dose 1 mg/kg, dosed compound name [14C]Rivoglitazone, route oral; conditions: rhesus monkey, read-out: Compound recovery
[16] = Terminal elimination half life in monkey at 0.493 mg/kg, iv administered via tail vein by LC-MS/MS analysis; type: ADME, organism-based, Macaca mulatta; parameters: dose 0.493 mg/kg, dosed compound name [14C]Rivoglitazone, route intravenous; conditions: rhesus monkey, in vivo, read-out: beta t1/2 (converted)
[17] = Drug excretion in bile duct-cannulated rat feces assessed as unchanged compound level administered through oral dose by radio-HPLC analysis; type: ADME; parameters: dosed compound name [14C]Rivoglitazone; conditions: read-out: Compound recovery
[18] = Cmax in monkey at 0.986 mg/kg, po administered via gavage by LC-MS/MS analysis; type: ADME, organism-based, Macaca mulatta; parameters: dose 0.986 mg/kg, dosed compound name [14C]Rivoglitazone, route oral; conditions: rhesus monkey, in vivo
[19] = AUC (0 to t) in F344/DuCrlCrlj rat at 0.5 mg/kg, po administered via gavage by LC-MS/MS analysis; type: ADME, organism-based; parameters: dose 0.5 mg/kg, dosed compound name [14C]Rivoglitazone, route oral; conditions: plasma
[20] = Apparent total clearance in F344/DuCrlCrlj rat at 1 mg/kg, po administered via gavage by LC-MS/MS analysis; type: ADME, organism-based; parameters: dose 1 mg/kg, dosed compound name [14C]Rivoglitazone, route oral; conditions: in vivo, read-out: CLt/F
[21] = AUC (0 to t) in F344/DuCrlCrlj rat at 1 mg/kg, po administered via gavage by LC-MS/MS analysis; type: ADME, organism-based; parameters: dose 1 mg/kg, dosed compound name [14C]Rivoglitazone, route oral; conditions: plasma
[22] = Oral bioavailability in monkey at 0.986 mg/kg administered via gavage by LC-MS/MS analysis; type: ADME, organism-based, Macaca mulatta; parameters: dosed compound name [14C]Rivoglitazone; conditions: rhesus monkey, in vivo
[23] = Apparent total clearance in monkey at 0.0986 mg/kg, po administered via gavage by LC-MS/MS analysis; type: ADME, organism-based, Macaca mulatta; parameters: dose 0.0986 mg/kg, dosed compound name [14C]Rivoglitazone, route oral; conditions: rhesus monkey, in vivo, read-out: CLt/F
[24] = Terminal elimination half life in monkey at 0.0986 mg/kg, iv administered via tail vein by LC-MS/MS analysis; type: ADME, organism-based, Macaca mulatta; parameters: dose 0.0986 mg/kg, dosed compound name [14C]Rivoglitazone, route intravenous; conditions: rhesus monkey, in vivo, read-out: beta t1/2 (converted)
[25] = AUC (0 to t) in monkey at 0.986 mg/kg, po administered via gavage by LC-MS/MS analysis; type: ADME, organism-based, Macaca mulatta; parameters: dose 0.986 mg/kg, dosed compound name [14C]Rivoglitazone, route oral; conditions: rhesus monkey, plasma
[26] = Apparent total clearance in monkey at 0.986 mg/kg, po administered via gavage by LC-MS/MS analysis; type: ADME, organism-based, Macaca mulatta; parameters: dose 0.986 mg/kg, dosed compound name [14C]Rivoglitazone, route oral; conditions: rhesus monkey, in vivo, read-out: CLt/F
[27] = Drug excretion in F344/DuCrlCrlj rat urine/feces assessed as unchanged compound at 1 mg/kg, po administered via gavage measured during 0 to 48 hrs by radio-HPLC analysis; type: ADME, organism-based; parameters: dose 1 mg/kg, dosed compound name [14C]Rivoglitazone, route oral; conditions: urine and feces, read-out: Compound recovery
[28] = AUC (0 to infinity) in F344/DuCrlCrlj rat at 0.5 mg/kg, iv administered via tail vein by LC-MS/MS analysis; type: ADME, organism-based; parameters: time infinity, dose 0.5 mg/kg, dosed compound name [14C]Rivoglitazone, route intravenous; conditions: plasma
[29] = Terminal elimination half life in F344/DuCrlCrlj rat at 0.5 mg/kg, iv administered via tail vein by LC-MS/MS analysis; type: ADME, organism-based; parameters: dose 0.5 mg/kg, dosed compound name [14C]Rivoglitazone, route intravenous; conditions: in vivo, read-out: beta t1/2 (converted)
[30] = Tmax in F344/DuCrlCrlj rat at 0.1 mg/kg, po administered via gavage by LC-MS/MS analysis; type: ADME, organism-based; parameters: dose 0.1 mg/kg, dosed compound name [14C]Rivoglitazone, route oral; conditions: in vivo
[31] = Total clearance in monkey at 0.493 mg/kg, iv administered via tail vein by LC-MS/MS analysis; type: ADME, organism-based, Macaca mulatta; parameters: dose 0.493 mg/kg, dosed compound name [14C]Rivoglitazone, route intravenous; conditions: rhesus monkey, in vivo
[32] = Total clearance in F344/DuCrlCrlj rat at 0.5 mg/kg, iv administered via tail vein by LC-MS/MS analysis; type: ADME, organism-based; parameters: dose 0.5 mg/kg, dosed compound name [14C]Rivoglitazone, route intravenous; conditions: in vivo
[33] = AUC (0 to t) in F344/DuCrlCrlj rat at 0.1 mg/kg, po administered via gavage by LC-MS/MS analysis; type: ADME, organism-based; parameters: dose 0.1 mg/kg, dosed compound name [14C]Rivoglitazone, route oral; conditions: plasma
[34] = Cmax in F344/DuCrlCrlj rat at 1 mg/kg, po administered via gavage by LC-MS/MS analysis; type: ADME, organism-based; parameters: dose 1 mg/kg, dosed compound name [14C]Rivoglitazone, route oral; conditions: in vivo
[35] = AUC (0 to infinity) in monkey at 0.493 mg/kg, iv administered via tail vein by LC-MS/MS analysis; type: ADME, organism-based, Macaca mulatta; parameters: time infinity, dose 0.493 mg/kg, dosed compound name [14C]Rivoglitazone, route intravenous; conditions: rhesus monkey, plasma
[36] = Retention time of the compound by LC-MS/MS analysis; type: physicochemical; parameters: dosed compound name [14C]Rivoglitazone

Question: Which AUC(0-t) [1] does the source give for `COc1ccc2nc(COc3ccc(CC4SC(=O)NC4=O)cc3)n(C)c2c1.Cl` (racemic) here?
Answer: 17200 ng·h/mL

Question: And the AUC(0-inf) [2]?
Answer: 4470 ng·h/mL

Question: What about the Vd [3] of the same molecule?
Answer: 0.131 L/kg

Question: What about the half-life [4] of the same molecule?
Answer: 440 min

Question: And the Tmax [5]?
Answer: 1.13 h

Question: What about the Vd [6] of the same molecule?
Answer: 0.166 L/kg

Question: What about the AUC(0-inf) [7] of the same molecule?
Answer: 49800 ng·h/mL

Question: And the bioavailability [8]?
Answer: 95%

Question: What about the Vd [9] of the same molecule?
Answer: 0.138 L/kg

Question: And the CL/F [10]?
Answer: 0.352 mL/min/kg

Question: And the bioavailability [11]?
Answer: 90.4%

Question: What about the Tmax [12] of the same molecule?
Answer: 2.25 h

Question: And the Compound recovery [13]?
Answer: metabolite_detected

Question: And the half-life [14]?
Answer: 270 min

Question: What about the dose excreted [15] of the same molecule?
Answer: 23.5%

Question: What about the half-life [16] of the same molecule?
Answer: 373 min

Question: What about the dose excreted [17] of the same molecule?
Answer: 12.6%

Question: What about the Cmax [18] of the same molecule?
Answer: 2930 ng/mL

Question: What about the AUC(0-t) [19] of the same molecule?
Answer: 21000 ng·h/mL

Question: What about the CL/F [20] of the same molecule?
Answer: 0.304 mL/min/kg

Question: What about the AUC(0-t) [21] of the same molecule?
Answer: 48500 ng·h/mL

Question: And the bioavailability [22]?
Answer: 76.1%

Question: And the CL/F [23]?
Answer: 0.432 mL/min/kg

Question: And the half-life [24]?
Answer: 383 min

Question: And the AUC(0-t) [25]?
Answer: 35800 ng·h/mL

Question: What about the CL/F [26] of the same molecule?
Answer: 0.41 mL/min/kg

Question: And the dose excreted [27]?
Answer: 23.7%

Question: And the AUC(0-inf) [28]?
Answer: 22900 ng·h/mL

Question: What about the half-life [29] of the same molecule?
Answer: 290 min

Question: What about the Tmax [30] of the same molecule?
Answer: 3.25 h

Question: What about the clearance [31] of the same molecule?
Answer: 0.371 mL/min/kg

Question: What about the clearance [32] of the same molecule?
Answer: 0.333 mL/min/kg

Question: What about the AUC(0-t) [33] of the same molecule?
Answer: 4340 ng·h/mL

Question: What about the Cmax [34] of the same molecule?
Answer: 4570 ng/mL

Question: What about the AUC(0-inf) [35] of the same molecule?
Answer: 23500 ng·h/mL

Question: What about the Retention_time [36] of the same molecule?
Answer: 23 min
